Laboratory results: ChEMBL document CHEMBL5303573, “Mapping human microbiome drug metabolism by gut bacteria and their genes” (Nature, 2019)

Experiment: The drug is tested on Collinsella intestinalis strain: DSM13280 for biotransformation. The drug concentrations were measured before and after a 12-h incubation by liquid-chromatography-coupled mass spectrometry (LC–MS)
Conditions: 2 µM

Bacterial Biotransformation	SMILES
Compound NOT metabolized	C#C[C@]1(O)CC[C@H]2[C@@H]3CCC4=CC(=O)CC[C@@H]4[C@H]3CC[C@@]21CC [LEVONORGESTREL]
Compound NOT metabolized	CCN(CC)CCOC(=O)C(Cc1cccc2ccccc12)CC1CCCO1.O=C(O)C(=O)O (centres undefined) [NAFRONYL OXALATE]
Compound NOT metabolized	Cc1ccccc1C(OCCN(C)C)c1ccccc1.O=C(O)CC(O)(CC(=O)O)C(=O)O (centres undefined) [ORPHENADRINE CITRATE]

Experiment: The drug is tested on Enterobacter cancerogenus strain: ATCC35316 for biotransformation. The drug concentrations were measured before and after a 12-h incubation by liquid-chromatography-coupled mass spectrometry (LC–MS)
Conditions: 2 µM

Bacterial Biotransformation	SMILES
Compound NOT metabolized	C#C[C@]1(O)CC[C@H]2[C@@H]3CCC4=CC(=O)CC[C@@H]4[C@H]3CC[C@@]21CC [LEVONORGESTREL]
Compound NOT metabolized	CCN(CC)CCOC(=O)C(Cc1cccc2ccccc12)CC1CCCO1.O=C(O)C(=O)O (centres undefined) [NAFRONYL OXALATE]

Conditions: bacteroides stercoris, 12 h, 2 µM
Description: The drug is tested on Bacteroides stercoris strain: ATCC43183 for biotransformation. The drug concentrations were measured before and after a 12-h incubation by liquid-chromatography-coupled mass spectrometry (LC–MS)

Bacterial Biotransformation	SMILES
Compound metabolized	C#C[C@]1(O)CC[C@H]2[C@@H]3CCC4=CC(=O)CC[C@@H]4[C@H]3CC[C@@]21CC [LEVONORGESTREL]
Compound NOT metabolized	CCN(CC)CCOC(=O)C(Cc1cccc2ccccc12)CC1CCCO1.O=C(O)C(=O)O (centres undefined) [NAFRONYL OXALATE]

Experiment: The drug is tested on Bacteroides ovatus strain: ATCC8483 for biotransformation. The drug concentrations were measured before and after a 12-h incubation by liquid-chromatography-coupled mass spectrometry (LC–MS)
Conditions: 2 µM

Bacterial Biotransformation	SMILES
Compound NOT metabolized	C#C[C@]1(O)CC[C@H]2[C@@H]3CCC4=CC(=O)CC[C@@H]4[C@H]3CC[C@@]21CC [LEVONORGESTREL]
Compound NOT metabolized	CCN(CC)CCOC(=O)C(Cc1cccc2ccccc12)CC1CCCO1.O=C(O)C(=O)O (centres undefined) [NAFRONYL OXALATE]
Compound NOT metabolized	Cc1ccccc1C(OCCN(C)C)c1ccccc1.O=C(O)CC(O)(CC(=O)O)C(=O)O (centres undefined) [ORPHENADRINE CITRATE]

Experiment: The drug is tested on Bacteroides coprophilus strain: DSM18228 for biotransformation. The drug concentrations were measured before and after a 12-h incubation by liquid-chromatography-coupled mass spectrometry (LC–MS)
Conditions: 2 µM

Bacterial Biotransformation	SMILES
Compound NOT metabolized	C#C[C@]1(O)CC[C@H]2[C@@H]3CCC4=CC(=O)CC[C@@H]4[C@H]3CC[C@@]21CC [LEVONORGESTREL]
Compound NOT metabolized	Cc1ccccc1C(OCCN(C)C)c1ccccc1.O=C(O)CC(O)(CC(=O)O)C(=O)O (centres undefined) [ORPHENADRINE CITRATE]

Experiment: The drug is tested on Eubacterium rectale strain: ATCC33656 for biotransformation. The drug concentrations were measured before and after a 12-h incubation by liquid-chromatography-coupled mass spectrometry (LC–MS)
Conditions: agathobacter rectalis, 2 µM

Bacterial Biotransformation	SMILES
Compound NOT metabolized	C#C[C@]1(O)CC[C@H]2[C@@H]3CCC4=CC(=O)CC[C@@H]4[C@H]3CC[C@@]21CC [LEVONORGESTREL]
Compound NOT metabolized	CCN(CC)CCOC(=O)C(Cc1cccc2ccccc12)CC1CCCO1.O=C(O)C(=O)O (centres undefined) [NAFRONYL OXALATE]

Experiment: The drug is tested on Parabacteroides merdae strain: ATCC43184 for biotransformation. The drug concentrations were measured before and after a 12-h incubation by liquid-chromatography-coupled mass spectrometry (LC–MS)
Conditions: 2 µM

Bacterial Biotransformation	SMILES
Compound metabolized	C#C[C@]1(O)CC[C@H]2[C@@H]3CCC4=CC(=O)CC[C@@H]4[C@H]3CC[C@@]21CC [LEVONORGESTREL]
Compound NOT metabolized	Cc1ccccc1C(OCCN(C)C)c1ccccc1.O=C(O)CC(O)(CC(=O)O)C(=O)O (centres undefined) [ORPHENADRINE CITRATE]

Experiment: The drug is tested on Subdoligranulum variabile strain: DSM15176 for biotransformation. The drug concentrations were measured before and after a 12-h incubation by liquid-chromatography-coupled mass spectrometry (LC–MS)
Conditions: 2 µM

Bacterial Biotransformation	SMILES
Compound NOT metabolized	Cc1ccccc1C(OCCN(C)C)c1ccccc1.O=C(O)CC(O)(CC(=O)O)C(=O)O (centres undefined) [ORPHENADRINE CITRATE]

Experiment: The drug is tested on Bacteroides fragilis strain: HMW610 for biotransformation. The drug concentrations were measured before and after a 12-h incubation by liquid-chromatography-coupled mass spectrometry (LC–MS)
Conditions: 2 µM

Bacterial Biotransformation	SMILES
Compound metabolized	C#C[C@]1(O)CC[C@H]2[C@@H]3CCC4=CC(=O)CC[C@@H]4[C@H]3CC[C@@]21CC [LEVONORGESTREL]
Compound NOT metabolized	Cc1ccccc1C(OCCN(C)C)c1ccccc1.O=C(O)CC(O)(CC(=O)O)C(=O)O (centres undefined) [ORPHENADRINE CITRATE]

Experiment: The drug is tested on Bacteroides fragilis strain: ATCC43859 for biotransformation. The drug concentrations were measured before and after a 12-h incubation by liquid-chromatography-coupled mass spectrometry (LC–MS)
Conditions: 2 µM

Bacterial Biotransformation	SMILES
Compound metabolized	C#C[C@]1(O)CC[C@H]2[C@@H]3CCC4=CC(=O)CC[C@@H]4[C@H]3CC[C@@]21CC [LEVONORGESTREL]
Compound NOT metabolized	CCN(CC)CCOC(=O)C(Cc1cccc2ccccc12)CC1CCCO1.O=C(O)C(=O)O (centres undefined) [NAFRONYL OXALATE]
Compound NOT metabolized	Cc1ccccc1C(OCCN(C)C)c1ccccc1.O=C(O)CC(O)(CC(=O)O)C(=O)O (centres undefined) [ORPHENADRINE CITRATE]

Experiment: The drug is tested on Bacteroides pectinophilus strain: ATCC43243 for biotransformation. The drug concentrations were measured before and after a 12-h incubation by liquid-chromatography-coupled mass spectrometry (LC–MS)
Conditions: 2 µM

Bacterial Biotransformation	SMILES
Compound NOT metabolized	C#C[C@]1(O)CC[C@H]2[C@@H]3CCC4=CC(=O)CC[C@@H]4[C@H]3CC[C@@]21CC [LEVONORGESTREL]
Compound NOT metabolized	Cc1ccccc1C(OCCN(C)C)c1ccccc1.O=C(O)CC(O)(CC(=O)O)C(=O)O (centres undefined) [ORPHENADRINE CITRATE]

Experiment: The drug is tested on Dorea formicigenerans strain: ATCC27755 for biotransformation. The drug concentrations were measured before and after a 12-h incubation by liquid-chromatography-coupled mass spectrometry (LC–MS)
Conditions: 2 µM

Bacterial Biotransformation	SMILES
Compound NOT metabolized	C#C[C@]1(O)CC[C@H]2[C@@H]3CCC4=CC(=O)CC[C@@H]4[C@H]3CC[C@@]21CC [LEVONORGESTREL]
Compound NOT metabolized	CCN(CC)CCOC(=O)C(Cc1cccc2ccccc12)CC1CCCO1.O=C(O)C(=O)O (centres undefined) [NAFRONYL OXALATE]
Compound NOT metabolized	Cc1ccccc1C(OCCN(C)C)c1ccccc1.O=C(O)CC(O)(CC(=O)O)C(=O)O (centres undefined) [ORPHENADRINE CITRATE]

Experiment: The drug is tested on Alistipes indistinctus strain: DSM22520 for biotransformation. The drug concentrations were measured before and after a 12-h incubation by liquid-chromatography-coupled mass spectrometry (LC–MS)
Conditions: 2 µM

Bacterial Biotransformation	SMILES
Compound NOT metabolized	C#C[C@]1(O)CC[C@H]2[C@@H]3CCC4=CC(=O)CC[C@@H]4[C@H]3CC[C@@]21CC [LEVONORGESTREL]
Compound NOT metabolized	CCN(CC)CCOC(=O)C(Cc1cccc2ccccc12)CC1CCCO1.O=C(O)C(=O)O (centres undefined) [NAFRONYL OXALATE]
Compound NOT metabolized	Cc1ccccc1C(OCCN(C)C)c1ccccc1.O=C(O)CC(O)(CC(=O)O)C(=O)O (centres undefined) [ORPHENADRINE CITRATE]

Experiment: The drug is tested on Blautia luti strain: DSM14534 for biotransformation. The drug concentrations were measured before and after a 12-h incubation by liquid-chromatography-coupled mass spectrometry (LC–MS)
Assay type: ADME
Design: dose 2 uM, timepoint 0 vs 12 hours
Conditions: 2 µM

Bacterial Biotransformation	SMILES
Compound NOT metabolized	C#C[C@]1(O)CC[C@H]2[C@@H]3CCC4=CC(=O)CC[C@@H]4[C@H]3CC[C@@]21CC [LEVONORGESTREL]
Compound NOT metabolized	CCN(CC)CCOC(=O)C(Cc1cccc2ccccc12)CC1CCCO1.O=C(O)C(=O)O (centres undefined) [NAFRONYL OXALATE]
Compound NOT metabolized	Cc1ccccc1C(OCCN(C)C)c1ccccc1.O=C(O)CC(O)(CC(=O)O)C(=O)O (centres undefined) [ORPHENADRINE CITRATE]

Experiment: The drug is tested on Ruminococcus torques strain: ATCC27756 for biotransformation. The drug concentrations were measured before and after a 12-h incubation by liquid-chromatography-coupled mass spectrometry (LC–MS)
Assay type: ADME
Design: dose 2 uM, timepoint 0 vs 12 hours
Conditions: 2 µM

Bacterial Biotransformation	SMILES
Compound NOT metabolized	CCN(CC)CCOC(=O)C(Cc1cccc2ccccc12)CC1CCCO1.O=C(O)C(=O)O (centres undefined) [NAFRONYL OXALATE]
Compound NOT metabolized	Cc1ccccc1C(OCCN(C)C)c1ccccc1.O=C(O)CC(O)(CC(=O)O)C(=O)O (centres undefined) [ORPHENADRINE CITRATE]

Experiment: The drug is tested on Clostridium asparagiforme strain: DSM15981 for biotransformation. The drug concentrations were measured before and after a 12-h incubation by liquid-chromatography-coupled mass spectrometry (LC–MS)
Assay type: ADME
Design: dose 2 uM, timepoint 0 vs 12 hours
Conditions: enterocloster asparagiformis, 2 µM

Bacterial Biotransformation	SMILES
Compound NOT metabolized	C#C[C@]1(O)CC[C@H]2[C@@H]3CCC4=CC(=O)CC[C@@H]4[C@H]3CC[C@@]21CC [LEVONORGESTREL]
Compound NOT metabolized	CCN(CC)CCOC(=O)C(Cc1cccc2ccccc12)CC1CCCO1.O=C(O)C(=O)O (centres undefined) [NAFRONYL OXALATE]
Compound NOT metabolized	Cc1ccccc1C(OCCN(C)C)c1ccccc1.O=C(O)CC(O)(CC(=O)O)C(=O)O (centres undefined) [ORPHENADRINE CITRATE]

Experiment: The drug is tested on Coprococcus comes strain: ATCC27758 for biotransformation. The drug concentrations were measured before and after a 12-h incubation by liquid-chromatography-coupled mass spectrometry (LC–MS)
Assay type: ADME
Design: dose 2 uM, timepoint 0 vs 12 hours
Conditions: 2 µM

Bacterial Biotransformation	SMILES
Compound NOT metabolized	C#C[C@]1(O)CC[C@H]2[C@@H]3CCC4=CC(=O)CC[C@@H]4[C@H]3CC[C@@]21CC [LEVONORGESTREL]
Compound NOT metabolized	CCN(CC)CCOC(=O)C(Cc1cccc2ccccc12)CC1CCCO1.O=C(O)C(=O)O (centres undefined) [NAFRONYL OXALATE]
Compound NOT metabolized	Cc1ccccc1C(OCCN(C)C)c1ccccc1.O=C(O)CC(O)(CC(=O)O)C(=O)O (centres undefined) [ORPHENADRINE CITRATE]

Experiment: The drug is tested on Clostridium symbiosum strain: ATCC14940 for biotransformation. The drug concentrations were measured before and after a 12-h incubation by liquid-chromatography-coupled mass spectrometry (LC–MS)
Conditions: 2 µM

Bacterial Biotransformation	SMILES
Compound NOT metabolized	C#C[C@]1(O)CC[C@H]2[C@@H]3CCC4=CC(=O)CC[C@@H]4[C@H]3CC[C@@]21CC [LEVONORGESTREL]
Compound NOT metabolized	CCN(CC)CCOC(=O)C(Cc1cccc2ccccc12)CC1CCCO1.O=C(O)C(=O)O (centres undefined) [NAFRONYL OXALATE]
Compound NOT metabolized	Cc1ccccc1C(OCCN(C)C)c1ccccc1.O=C(O)CC(O)(CC(=O)O)C(=O)O (centres undefined) [ORPHENADRINE CITRATE]

Experiment: The drug is tested on Edwardsiella tarda strain: ATCC23685 for biotransformation. The drug concentrations were measured before and after a 12-h incubation by liquid-chromatography-coupled mass spectrometry (LC–MS)
Conditions: 2 µM

Bacterial Biotransformation	SMILES
Compound NOT metabolized	C#C[C@]1(O)CC[C@H]2[C@@H]3CCC4=CC(=O)CC[C@@H]4[C@H]3CC[C@@]21CC [LEVONORGESTREL]
Compound NOT metabolized	CCN(CC)CCOC(=O)C(Cc1cccc2ccccc12)CC1CCCO1.O=C(O)C(=O)O (centres undefined) [NAFRONYL OXALATE]
Compound NOT metabolized	Cc1ccccc1C(OCCN(C)C)c1ccccc1.O=C(O)CC(O)(CC(=O)O)C(=O)O (centres undefined) [ORPHENADRINE CITRATE]

Conditions: enterocloster bolteae, 12 h, 2 µM
Description: The drug is tested on Clostridium bolteae strain: ATCCBAA-613 for biotransformation. The drug concentrations were measured before and after a 12-h incubation by liquid-chromatography-coupled mass spectrometry (LC–MS)

Bacterial Biotransformation	SMILES
Compound NOT metabolized	C#C[C@]1(O)CC[C@H]2[C@@H]3CCC4=CC(=O)CC[C@@H]4[C@H]3CC[C@@]21CC [LEVONORGESTREL]
Compound NOT metabolized	CCN(CC)CCOC(=O)C(Cc1cccc2ccccc12)CC1CCCO1.O=C(O)C(=O)O (centres undefined) [NAFRONYL OXALATE]
